Results on 1 compound are retold here after patent publication US10519140B2, “Indolin-2-one derivatives” (Hoffmann-La Roche Inc., priority 2015, dated 2019).

Assay [1] deals with L-687,414-induced hyperlocomotion. The assay is described as follows: L-687,414-induced hyperlocomotion. As to conditions: Mus musculus; mice; dose 30 mg/kg ip, 15 min before 50 mg/kg s.c. L-687,414. It counts as in vivo. The source says:
The authors described that hyperlocomotion induced by L-687,414 was inhibited by a series of known antipsychotic drugs. […] These findings predict antipsychotic activity for the present compounds, making them useful for the treatment of positive (psychosis) and negative symptoms of schizophrenia, substance abuse, alcohol and drug addiction, obsessive-compulsive disorders, cognitive impairment, bipolar disorders, mood disorders, major depression, resistant depression, anxiety disorders, Alzheimer's disease, autism, Parkinson's disease, chronic pain, borderline personality disorder, sleep disturbances, chronic fatigue syndrome, stiffness, antiinflammatory effects in arthritis and balance problems, and treatment of epilepsy and neurodevelopmental disorders with co-morbid epilepsy.
The described compounds of formula I reduce L-687,414-induced hyperlocomotion. This was assessed by using a computerized Digiscan 16 Animal Activity Monitoring System (Omnitech Electronics, Columbus, Ohio) to quantify locomotor activity. Animals were kept under a 12 h light/dark cycle and experiments were performed during the light period. Each activity monitoring chamber consisted of a Plexiglas box (41×41×28 cm; W×L×H) with sawdust bedding on the floor surrounded by invisible horizontal and vertical infrared sensor beams. The test boxes were divided by a Plexiglas cross providing each mouse with 20×20 cm of moving space. Cages were connected to a Digiscan Analyzer linked to a computer that constantly collected the beam status information. Records of photocell beam interruptions for individual animals were taken every 5 min over the duration of the experimental session and the sum of the first 6 periods was used as the final parameter. At least 8 mice were used in each treatment group. Compounds were administered i.p. 15 min before a s.c. injection of 50 mg/kg of L-687,414. Mice were then transferred from their home cage to the recording chambers for a 15-min habituation phase allowing free exploration of the new environment. Horizontal activity was then recorded for a 30-min time period. The % inhibition of L-687,414-induced hyperlocomotion was calculated according to the equation: ((Veh+L-687,414 horizontal activity−drug+L-687,414 horizontal activity)/Veh+L−687,414 horizontal activity)×100
ID50 values, defined as doses of each compound producing 50% inhibition of L-687,414-induced hyperlocomotion, were calculated by linear regression analysis of a dose-response data using an Excel-based computer-fitting program.
As data was not presupposed to be normally distributed, groups treated with test compounds were statistically compared with the control (vehicle-treated) group using one-tailed Mann Whitney U tests. In statistics, the Mann-Whitney Utest (also called the Mann-Whitney-Wilcoxon (MWW) or Wilcoxon rank-sum test) is a non-parametric statistical hypothesis test for assessing whether one of two samples of independent observations tends to have larger values than the other. It is one of the most well-known non-parametric significance tests. […] P values given in table 1 are one-tailed since only decreases in locomotion were expected and tested for (Mann, H. B., Whitney, D. R. (1947), “On a Test of Whether one of Two Random Variables is Stochastically Larger than the Other”, Annals of Mathematical Statistics, 18 (1), 50-60).

A further assay concerns the target T1, mouse ENT-1 transporter (Mus musculus, UniProt Q9JIM1).
T1 construct: expressed in transfected cells
T1 sequence (Q9JIM1 1-460): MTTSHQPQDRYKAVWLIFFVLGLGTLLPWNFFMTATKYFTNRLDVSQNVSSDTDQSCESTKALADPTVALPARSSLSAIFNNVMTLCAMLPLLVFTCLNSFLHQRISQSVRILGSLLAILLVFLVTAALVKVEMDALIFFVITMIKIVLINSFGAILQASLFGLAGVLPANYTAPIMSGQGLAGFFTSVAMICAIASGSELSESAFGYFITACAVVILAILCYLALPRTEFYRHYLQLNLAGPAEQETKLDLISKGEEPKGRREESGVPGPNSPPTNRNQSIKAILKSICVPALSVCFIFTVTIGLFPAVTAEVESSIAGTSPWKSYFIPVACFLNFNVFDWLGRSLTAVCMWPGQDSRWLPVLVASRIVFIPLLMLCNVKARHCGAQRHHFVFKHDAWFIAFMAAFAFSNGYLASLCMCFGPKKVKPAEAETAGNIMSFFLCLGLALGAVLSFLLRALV
The assay can be described thus: Adenosine transport activity (ENT1, [3H]-adenosine uptake inhibition). Format: cell-based. As to conditions: stable cells expressing mouse ENT-1; [2,8-3H]-adenosine 6 nM, 20 min. On the procedure: To measure adenosine transport activity of ENT-1 mammalian cells, stable cells expressing the mouse ENT-1 transporter were plated on day 1 in 96-well culture plates at the density of 60,000 cells/well, in complete DMEM/F12 medium supplemented with glutamax, 10% FBS and 10 μg/ml puromycin. On day 2, the medium was aspirated and the cells were washed twice with uptake buffer (10 mM Hepes-Tris, pH 7.4 containing 150 mM NaCl, 1 mM CaCl2, 2.5 mM KCl, 2.5 mM MgSO4, 10 mM D-glucose) (UB). For inhibition experiments, cells were then incubated at RT with various concentrations of compounds with 1% DMSO final. Non-specific uptake was defined in the presence of 10 μM S-(4-Nitrobenzyl)-6-thioinosine (NBTI, Sigma Cat #N2255). A solution containing [2,8-^3H]-adenosine 6 nM (40 Ci/mmol, American Radiolabeled chemicals Inc, Cat #ART 0287A) was then immediately added to the wells. The plates were then incubated for 20 min with gentle shaking and the reaction was stopped by aspiration of the mixture and washing (three times) with ice-cold UB. The cells were lysed by the addition of scintillation liquid, shaken 3 hours and the radioactivity in the cells was estimated using a microplates scintillation counter (TopCount NXT, Packard).

The inhibition in vivo is the share of the control response that was lost under treatment. Higher therefore signals strong suppression. Usually IC50 stands for the concentration that inhibits the measured activity by half. In assay [1], `Cc1ncc(-c2ccc3c(c2)N(c2ccc4c(c2)N(C)C(=O)CO4)C(=O)C3(C)C)cn1` [Example 47, 6-(3,3-Dimethyl-6-(2-methylpyrimidin-5-yl)-2-oxoindolin-1-yl)-4-methyl-2H-benzo[b][1,4]oxazin-3(4H)-one] came in with an inhibition in vivo at 30 mg/kg of 93.8%. Also, it took 14.2 nM to reach half-maximal inhibition at mouse ENT-1 transporter (IC50).
